From ChEMBL document CHEMBL3797102, “Drug trapping in hERG K+ channels: (not) a matter of drug size?” (Medchemcomm, 2016) come the findings set out here.

Common to all, as to type: cell-based
Series [1] concerns the target T1, hERG (KCNH2), wild type (Homo sapiens, UniProt Q12809). Description: Inhibition of wild type human ERG channel expressed in Xenopus laevis oocytes assessed as first current amplitude after resting period of 300 secs followed by single test pulse at -100 mV holding potential by two-electrode voltage clamp method. Details: scale not given: the % may be the effect or the level left; call rule not given here. The note with it: read-out: Activity. (Two-electrode voltage clamp is typically applied to oocytes expressing channels or transporters.)

Series [2] deals with T2, Voltage-gated inwardly rectifying potassium channel KCNH2 (Homo sapiens, UniProt Q12809). As to the kind of experiment: Inhibition of wild type human ERG channel expressed in Xenopus laevis oocytes assessed as use dependent steady state block of induced K+ current at 150 uM preincubated for 330 secs followed by pulse train at 1 Hz at holding potential -100 mV by two-electrode voltage clamp method.

The target in series [3] is T2, Voltage-gated inwardly rectifying potassium channel KCNH2. As to the kind of experiment: Inhibition of wild type human ERG channel expressed in Xenopus laevis oocytes assessed as time taken for use dependent steady state block of K+ current at 150 uM preincubated for 330 secs followed by pulse train at 1 Hz at holding potential -100 mV by two-electrode voltage clamp method.

Series [4] deals with T1, hERG (KCNH2), wild type. As to the kind of experiment: Inhibition of wild type human ERG channel expressed in Xenopus laevis oocytes assessed as use dependent steady state block of +20 mV-induced K+ current at 150 uM preincubated for 330 secs followed by pulse train at 1 Hz by two-electrode voltage clamp method.
Series [5] has as its target T2, Voltage-gated inwardly rectifying potassium channel KCNH2. Description: Inhibition of wild type human ERG channel expressed in Xenopus laevis oocytes assessed as recovery from channel block after resting period of 300 secs followed by single test pulse at -100 mV holding potential subsequently washed out at 0.3 Hz by two-electrode voltage clamp method. More on the design: scale not given: the % may be the effect or the level left. Conditions: 5 min.

The target in series [6] is hERG (KCNH2) Y652A mutant (Homo sapiens, UniProt Q12809, Y652A). Description: Inhibition of human ERG channel Y652A mutant expressed in Xenopus laevis oocytes assessed as use dependent suppression of K+ current at 150 uM at 1 Hz equilibrated for 5 mins by two-electrode voltage clamp method.
Series [7] has as its target hERG (KCNH2) F656A mutant (Homo sapiens, UniProt Q12809, F656A). As to the kind of experiment: Inhibition of human ERG channel F656A mutant expressed in Xenopus laevis oocytes assessed as use dependent suppression of tail current at 150 uM at -140 mV by two-electrode voltage clamp method.

T2 sequence (Q12809 whole entry): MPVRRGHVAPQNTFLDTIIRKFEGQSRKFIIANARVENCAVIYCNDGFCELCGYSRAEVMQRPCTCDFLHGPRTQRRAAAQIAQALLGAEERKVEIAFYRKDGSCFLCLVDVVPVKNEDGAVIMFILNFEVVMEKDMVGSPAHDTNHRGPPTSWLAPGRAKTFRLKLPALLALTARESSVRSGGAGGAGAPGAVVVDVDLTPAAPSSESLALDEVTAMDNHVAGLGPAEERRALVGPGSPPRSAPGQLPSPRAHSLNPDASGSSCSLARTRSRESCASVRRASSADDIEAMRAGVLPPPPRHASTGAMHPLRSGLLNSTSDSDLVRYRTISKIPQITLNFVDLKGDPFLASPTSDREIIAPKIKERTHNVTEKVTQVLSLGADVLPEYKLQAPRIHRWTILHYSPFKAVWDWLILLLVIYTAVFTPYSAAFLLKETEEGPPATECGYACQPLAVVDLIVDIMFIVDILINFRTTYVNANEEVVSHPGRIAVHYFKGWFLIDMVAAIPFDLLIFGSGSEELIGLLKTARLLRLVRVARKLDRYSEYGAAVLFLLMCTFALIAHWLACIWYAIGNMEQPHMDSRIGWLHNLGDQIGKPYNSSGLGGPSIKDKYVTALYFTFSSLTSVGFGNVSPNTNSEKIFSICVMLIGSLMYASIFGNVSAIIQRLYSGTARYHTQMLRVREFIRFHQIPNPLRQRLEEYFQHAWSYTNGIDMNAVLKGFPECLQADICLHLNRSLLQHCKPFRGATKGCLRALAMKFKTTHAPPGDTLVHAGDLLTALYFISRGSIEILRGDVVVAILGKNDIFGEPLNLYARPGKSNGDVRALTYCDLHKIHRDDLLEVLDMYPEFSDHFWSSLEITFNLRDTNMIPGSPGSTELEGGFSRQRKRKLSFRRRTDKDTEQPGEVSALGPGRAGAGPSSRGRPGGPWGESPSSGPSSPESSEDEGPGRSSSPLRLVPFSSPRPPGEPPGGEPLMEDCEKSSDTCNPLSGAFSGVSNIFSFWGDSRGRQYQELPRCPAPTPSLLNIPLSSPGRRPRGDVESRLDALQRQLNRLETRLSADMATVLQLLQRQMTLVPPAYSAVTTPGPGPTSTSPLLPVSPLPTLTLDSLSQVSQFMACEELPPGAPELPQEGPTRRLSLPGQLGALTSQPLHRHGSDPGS
T1 sequence (Q12809 whole entry): as above
hERG (KCNH2) Y652A mutant, sequence (Q12809 whole entry Y652A): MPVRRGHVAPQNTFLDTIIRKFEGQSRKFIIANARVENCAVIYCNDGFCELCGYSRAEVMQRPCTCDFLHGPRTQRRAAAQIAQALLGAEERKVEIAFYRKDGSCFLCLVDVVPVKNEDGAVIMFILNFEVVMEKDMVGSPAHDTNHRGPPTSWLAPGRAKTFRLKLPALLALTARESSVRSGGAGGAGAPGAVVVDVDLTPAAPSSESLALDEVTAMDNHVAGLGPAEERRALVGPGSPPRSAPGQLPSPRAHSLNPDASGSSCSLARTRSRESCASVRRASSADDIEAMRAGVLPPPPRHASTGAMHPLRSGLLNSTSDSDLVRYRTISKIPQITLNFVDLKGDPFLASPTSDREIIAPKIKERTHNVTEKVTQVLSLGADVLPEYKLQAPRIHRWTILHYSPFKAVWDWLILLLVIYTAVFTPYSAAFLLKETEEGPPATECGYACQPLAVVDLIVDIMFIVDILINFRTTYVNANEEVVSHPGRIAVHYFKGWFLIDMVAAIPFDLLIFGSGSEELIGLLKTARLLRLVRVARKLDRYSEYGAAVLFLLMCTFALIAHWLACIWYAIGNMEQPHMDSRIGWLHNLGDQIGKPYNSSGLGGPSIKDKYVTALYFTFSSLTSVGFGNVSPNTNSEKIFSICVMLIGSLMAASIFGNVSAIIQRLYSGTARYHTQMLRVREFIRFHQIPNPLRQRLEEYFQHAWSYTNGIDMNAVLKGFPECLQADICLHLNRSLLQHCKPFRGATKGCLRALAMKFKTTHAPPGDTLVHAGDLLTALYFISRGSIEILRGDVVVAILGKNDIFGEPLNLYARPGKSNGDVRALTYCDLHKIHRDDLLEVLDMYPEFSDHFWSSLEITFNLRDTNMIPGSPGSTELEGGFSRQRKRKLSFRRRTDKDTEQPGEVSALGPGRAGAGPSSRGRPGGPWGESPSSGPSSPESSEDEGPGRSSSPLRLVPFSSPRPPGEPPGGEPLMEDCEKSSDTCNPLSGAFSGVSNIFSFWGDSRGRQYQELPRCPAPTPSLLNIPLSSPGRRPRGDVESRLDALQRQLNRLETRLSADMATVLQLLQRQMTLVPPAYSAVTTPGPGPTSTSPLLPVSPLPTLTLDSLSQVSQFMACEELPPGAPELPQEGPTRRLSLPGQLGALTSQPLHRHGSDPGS
hERG (KCNH2) F656A mutant, sequence (Q12809 whole entry F656A): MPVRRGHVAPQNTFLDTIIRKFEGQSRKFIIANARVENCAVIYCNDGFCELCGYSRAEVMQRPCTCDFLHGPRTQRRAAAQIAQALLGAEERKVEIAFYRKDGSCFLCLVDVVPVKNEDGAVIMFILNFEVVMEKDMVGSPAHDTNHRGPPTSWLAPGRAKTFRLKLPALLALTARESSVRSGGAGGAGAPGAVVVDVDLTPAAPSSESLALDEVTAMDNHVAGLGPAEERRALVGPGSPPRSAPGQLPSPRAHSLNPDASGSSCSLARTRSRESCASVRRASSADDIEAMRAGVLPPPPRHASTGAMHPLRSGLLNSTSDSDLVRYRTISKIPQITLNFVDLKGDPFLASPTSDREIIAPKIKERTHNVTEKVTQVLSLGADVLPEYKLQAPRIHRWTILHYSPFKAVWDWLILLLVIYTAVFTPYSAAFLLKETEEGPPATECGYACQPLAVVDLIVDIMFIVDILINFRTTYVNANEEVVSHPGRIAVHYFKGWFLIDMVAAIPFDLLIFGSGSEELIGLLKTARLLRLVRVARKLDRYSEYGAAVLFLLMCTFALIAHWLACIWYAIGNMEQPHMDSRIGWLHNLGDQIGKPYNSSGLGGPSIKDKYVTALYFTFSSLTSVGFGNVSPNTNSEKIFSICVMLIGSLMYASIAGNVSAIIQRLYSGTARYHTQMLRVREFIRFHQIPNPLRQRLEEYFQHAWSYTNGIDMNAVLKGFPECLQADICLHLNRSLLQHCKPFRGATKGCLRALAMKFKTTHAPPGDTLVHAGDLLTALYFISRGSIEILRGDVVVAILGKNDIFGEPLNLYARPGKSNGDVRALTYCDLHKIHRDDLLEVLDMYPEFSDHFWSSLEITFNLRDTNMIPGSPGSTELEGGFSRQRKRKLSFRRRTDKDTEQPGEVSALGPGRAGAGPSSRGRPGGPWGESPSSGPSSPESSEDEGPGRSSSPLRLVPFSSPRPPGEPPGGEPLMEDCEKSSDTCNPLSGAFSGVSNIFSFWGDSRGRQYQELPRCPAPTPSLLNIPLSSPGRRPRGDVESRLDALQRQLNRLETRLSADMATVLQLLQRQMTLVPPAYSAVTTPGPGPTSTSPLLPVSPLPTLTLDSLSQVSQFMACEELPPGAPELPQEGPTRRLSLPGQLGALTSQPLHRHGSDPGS

`O=C(CCc1ccccc1)c1ccccc1OCC(O)CN1CCN(C(c2ccccc2)(c2ccccc2)c2ccccc2)CC1` (configuration not stated): in series [1], the activity at 5 min is below 1%. Also, in series [2], the “inhibition (INH)” value is listed as “Active”. The Time in series [3] was 15 s. In addition, the inhibition at 330 s, 150 µM in series [4] came to 69%. In addition, in series [5], the Activity is 47.5%. Also, in series [6], the inhibition at 5 min, 150 µM came out at 13.2%. Further, the inhibition at 150 µM in series [7] is 18.3%.

One may read the inhibition as the share of the control response that was lost under treatment.
